Row | Structure (SMILES) | melting point
1 | CCOC(=O)CCc1nc(-c2cccc(OC)c2)nc2ccccc12 | 70 °C
2 | O=C(OCC1CC(O)C(n2cc(F)c(=O)[nH]c2=O)O1)c1ccccc1 (stereo not given) | 154 to 156 °C
3 | O=C(CC1CCOCC1)N[C@H]1CC[C@H](CCN2CCC(c3ccc(F)c4occc34)CC2)CC1 | 188 °C
4 | O=C(O)COc1cccnc1-c1ccc(Cl)c(C(=O)NCC23CC4CC(CC(C4)C2)C3)c1 | 133 to 137 °C
5 | O=[N+]([O-])c1ccc(S(=O)(=O)CCO)cc1O | 140 to 142 °C
6 | COC1=NS(=O)(=O)N(C)C(OCCc2ccccc2)=N1 | 74 to 77 °C
7 | O=S1(=O)NCN(C2CC2)c2c(Cl)cccc21 | 142 to 143 °C
8 | Cc1csc(-c2nc(COc3ccc(CCCCn4ccnc4)cc3)co2)c1 | 77 to 78 °C
9 | Cc1ccc(=NS(=O)(=O)C(F)(F)F)n(-c2cccc(C(F)(F)F)c2)c1 | 206 °C
10 | O=C1CCC(N2Cc3c(OCc4ccc(CN5CCS(=O)CC5)cc4)cccc3C2=O)C(=O)N1 (stereo not given) | 170 to 172 °C
11 | C=CC(=O)N1C(C)(C)CC(OC(=O)C(C#N)(Cc2cc(C(C)(C)C)c(O)c(C(C)(C)C)c2)Cc2cc(C(C)(C)C)c(O)c(C(C)(C)C)c2)CC1(C)C | 174 °C
12 | COc1c(N2CC(N)C2)c(F)cc2c(=O)c(C(=O)O)cn(-c3cc(N)c(F)cc3F)c12 | > 290 °C
13 | O=C(Nc1ccc(-n2nc(-c3cccnc3)cc2C(F)F)cc1)c1ccncc1F | 176 to 178 °C
14 | CC1(C)OCCC2N1C(=O)C2(Sc1ccccc1)C1(O)CCSCC1 (stereo not given) | 191 to 192 °C
15 | C[C@]12CC(I)C(=O)C=C1CC[C@@H]1[C@@H]2CC[C@]2(C)C(=O)CC[C@@H]12 (stereo not given in full) | 92 °C
16 | COc1ccc(COc2cccnc2NC(=N)Nc2ccccc2)cc1 | 141 to 143 °C
17 | CCOC(=O)C(CC)Sc1nc2c([nH]1)c(=O)n(C)c(=O)n2C (stereo not given) | 175 °C
18 | CC(Cc1c[nH]c2ccc(N)cc12)[N+](=O)[O-] (stereo not given) | 120 to 122 °C
19 | COc1ccc2c(c1)OC(CN1CC=C(c3c[nH]c4ccccc34)CC1)CO2 (stereo not given) | 166 to 168 °C
20 | CC(C)(C)c1cc(C2=NNC(=O)CC2)cc(C(C)(C)C)c1O | 200 to 203 °C
21 | CC(C)(O)CCCCCc1ccc(CCc2cc(O)cc(O)c2)cc1 | 128 to 130 °C
22 | Cc1oc2cc(C3CC(=O)N(C4CC4)C(=O)C3)ccc2c1C | 180 to 182 °C
23 | c1cncc(-c2ccnc3nccn23)c1 | 162 to 164 °C
24 | Cc1nc(CS(C)=O)nc(OC(=O)N(C)C)c1C(C)C (stereo not given) | 80 °C
25 | CC(CCC(O)C(C)(C)O)C1CCC2C3=CC=C4CC(O)CCC4(C)C3CCC21C (stereo not given) | 216 to 218 °C

Row | Structure (SMILES) | melting point
26 | N#Cc1ccc(C(F)(F)F)cc1N=NNc1cc(C(F)(F)F)ccc1C#N | 183 to 184 °C
27 | COC(=O)C1=C(C)NC(C)=C(C(=O)OCCN2CCN(C(c3ccccc3)c3ccccc3)CC2)C1c1cccc(Cl)c1Cl (stereo not given) | 84 to 88 °C
28 | O=C(O)C(CCN1C(=O)c2ccccc2C1=O)Oc1ccc(-c2ccc(-c3c(Cc4ccccc4)oc4ccccc34)cc2)cc1 (stereo not given) | 182 to 184 °C
29 | COc1cc2c(cc(C(=O)OCc3ccccc3)n2CCC#N)c(C)c1C | 140 °C
30 | O=C(O)C1(c2ccc(Nc3nc(C4CCCC4)nc4c3CCC4)cc2)CCCC1 | 321 to 325 °C
31 | CN1C(=O)c2c(n3ccnc3c3c2c2cccnc2n3C2OC(CO)C(O)C(O)C2O)C1=O (stereo not given) | 298 °C
32 | COc1cc2c(cc1-c1cncs1)-c1c(-c3cncs3)c3c(n1CC2)C(=O)N(C(C)(C)C)CCOC3 | 254 to 255 °C
33 | CC1=NN(c2ccc(C)c(C)c2)C(=O)C1=NNc1cccc(-c2cccc(P(=O)(O)O)c2)c1O | 144 to 149 °C
34 | O=C(NCCCCN1CCC(Oc2cccc3ccccc23)CC1)c1ccc(-c2ccc(C(F)(F)F)cc2)cc1 | 166 °C
35 | CC(=O)O[C@H]1[C@H]([C@H](Cc2ccccc2)NC(=O)OCc2ccccc2)OC(=O)N[C@H]1Cc1ccccc1 | 140 to 142 °C
36 | CN1Cc2c(S(=O)(=O)Cl)cc3[nH]c(=O)c(=O)[nH]c3c2C1 | > 300 °C
37 | CCc1cccc(CC(=O)O)c1OCCn1cc(C(=O)NCc2ccc(Cl)cc2Cl)c(OC(C)C)n1 | 125 to 126 °C
38 | CCN(CC)CCOc1ccc2c(c1)c(C(=O)OCc1ccccc1)c(C)n2C | 73 to 74 °C
39 | CN(C)S(=O)(=O)N1CCNC1=O | 129 °C
40 | NC(=O)c1cc(C(F)(F)F)cc(F)c1F | 128 to 130 °C
41 | COc1cc(C(=O)N2CCC(CCN3CCC(Nc4nc5ccccc5n4Cc4ccccn4)CC3)(c3ccc(F)cc3)C2)cc(OC)c1OC (stereo not given) | 110 to 119 °C
42 | CCOc1ccc(-c2ccc3c(c2)C=C(C(=O)Nc2ccc(CN(C)C4CCOCC4)cc2)CCN3C)cc1 | 150 to 152 °C
43 | O=C(Nc1ccccc1)c1nc2ccccc2[nH]1 | 201 to 202 °C
44 | CSCc1ccc2ncnc(Nc3cccc(C)c3)c2c1 | 134 to 136 °C
45 | O=C(Nc1ccc(Cl)nc1)C1=NN(c2ccc(Cl)cc2)C(c2ccc(F)cc2)C1 (stereo not given) | 191 to 193 °C
46 | CN1C(=O)N(C[C@H](C(=O)O)[C@@H](CC2CCCC2)C(=O)N2CCCCC2)C(=O)C1(C)C | 111 to 114 °C
47 | CN(C)S(=O)(=O)c1cccc(Nc2ncc3cc4ccccc4n3n2)c1 | 191 to 193 °C
48 | Cc1cc(-c2cc(CN3CCN(C)CC3)c(=O)n(Cc3ccc(Cl)cc3)n2)ccc1F | 133 to 134 °C
49 | CC(=O)NCC1CN=C(c2ccccc2)c2cc(Cl)ccc2N1 (stereo not given) | 240 to 245 °C
50 | CCOC(=O)C(=O)Nc1cccc([N+](=O)[O-])c1C#N | 111 to 113 °C

Now from value to molecule:

Row | melting point | Structure (SMILES)
51 | 194 to 197 °C | CCc1noc(C)c1-c1[nH]c2ccccc2c1CC(=O)O
52 | 94 to 96 °C | COC(=O)CC(Sc1cc(C(C)(C)C)c(O)c(C(C)(C)C)c1)C(=O)OC (stereo not given)
53 | 179 to 180 °C | CSc1c(OCC(=O)O)ccc2c1[nH]c1ccccc12
54 | 171 to 173 °C | O=C(O)c1cc(Br)ccc1Sc1ccccc1
55 | 235 °C | O=C(CN1C(=O)c2ccccc2C1=O)Nc1cccc(C(F)(F)F)c1
56 | 122 to 125 °C | Cc1ccc(NC(=O)N2CCN(CCc3ccc(-c4cccc(N)n4)cc3)CC2)cc1C
57 | 181 to 182 °C | Cc1oc(-c2ccc3ccccc3c2)nc1COc1ccc(CO)cc1
58 | 46 to 50 °C | CCOC(=O)C1CN(C(=O)C(C)(C)C)CCC1=O (stereo not given)
59 | 154 to 155 °C | CN(CCSCc1nc[nH]c1CSCCN(C)C(N)=S)C(N)=S
60 | 116 to 117 °C | CON(C)C(=S)Nc1ccc(OCCc2ccccc2)c(Cl)c1
61 | 49 to 50 °C | CC1=CC(O)C(OC(=O)C=Cc2ccc(N)cc2)C(C)(C)CC1=O (stereo not given)
62 | 175 to 177 °C | CCCc1c(C(=O)NCc2ccc3cc(OCC(=O)O)ccc3c2)cnn1-c1ccccc1
63 | 139 to 141 °C | Cc1ccc(NC(=O)C#Cc2ccccc2)cc1
64 | 64 to 66.5 °C | O=C(COC(F)(F)F)Nc1ccccc1
65 | 120 °C | O=[N+]([O-])c1c(Br)nc2ccc(Cl)cc2c1C(F)(F)F
66 | 99 to 101 °C | CC1=CC(OC(=O)c2nc[nH]c2C)C(O)C(C)(C)CC1=O (stereo not given)
67 | 169 to 171 °C | Cc1cc(CN2C(=O)C3(COc4cc5c(cc43)OCO5)c3ccccc32)c(C)n1C(C)C (stereo not given)
68 | 287 °C | C(=Cc1ccc(-c2nc(-c3ccccc3)no2)cc1)c1ccc(-c2nc3ccccn3n2)cc1
69 | 129 °C | CCn1c2c(c3ccccc31)C=CN(C(=O)OC)C=C2C(=O)OC
70 | 90 to 92 °C | CC(C)(C)OC(=O)ON=C(C#N)c1cccc2ccccc12
71 | 134 to 137 °C | CCOC(=O)C(=O)Nc1cnccn1
72 | 262 to 263 °C | Cn1ncc(/C=C/C(=O)Nc2ccc(Cc3n[nH]c(=O)o3)cc2)c1-c1ccc(F)cc1
73 | 156 to 157 °C | Cc1cc(CCCOc2c(Cl)cc(C(=O)O)cc2Cl)on1

Row | melting point | Structure (SMILES)
74 | 277 to 279 °C | Cc1nc2c(c(=O)[nH]1)-c1ccc(Cl)cc1C(c1ccccc1Cl)=NC2
75 | 236 °C | CCc1cc(C(=O)Nc2cc(Oc3ccc4nc(NC(=O)C5CC5)cn4n3)ccc2F)n(C)n1
76 | 184 °C | CC(C)[C@H](NC(=O)OCc1ccccc1)C(=O)NC(Cc1ccccc1)C(O)C(Cc1ccccc1)NC(=O)[C@@H](NC(=O)OC(C)(C)C)C(C)C (stereo not given in full)
77 | 105 to 106 °C | CCc1ncnc(NC2CCC3(CC2)OCC(c2ccccc2)O3)c1Cl (stereo not given)
78 | 274 °C | C=C(C)c1ccc(C2C(C(=O)c3ccc(C(C)C)cc3)=C(O)C(=O)N2c2ccc(C)nn2)cc1 (stereo not given)
79 | 75 °C | CCC(Cc1ccc(OCCN2CCCCC2)cc1)(C(=O)NO)S(=O)(=O)c1ccc(OC)cc1 (stereo not given)
80 | 250 to 251 °C | COc1ccc(C(=O)C2=C(O)C(=O)N(c3ccc(C)nn3)C2c2ccc(OC(F)(F)F)cc2)cn1 (stereo not given)
81 | 266 to 267 °C | O=C1NCCN1c1ccc(S(=O)(=O)Nc2ccc(I)cc2)cc1
82 | 106 to 108 °C | CC(/C=C/c1c(C)sc(C)c1C)=C(F)\C=C\C(C)=C\CO
83 | > 90 °C | Cc1nc2c(Br)cc(Br)cn2c1C
84 | 110 to 113 °C | O=C(CN1CCC(CN2C(=O)c3ccccc3C2=O)CC1)c1ccc(F)cc1
85 | 179 to 181 °C | COc1ccc(-n2nc(-c3ccccc3O)nc2-c2ccccc2O)cc1
86 | 149 to 150 °C | COc1ccccc1N1CCN(CCCOc2ccc(-c3cn4ccccc4n3)cc2)CC1
87 | 77 to 79 °C | COc1ccc(C(CN(C)C)C2CCCCC2O)cc1 (stereo not given)
88 | 106 to 108 °C | O=C(NC1CCN(CCc2ccccc2F)C1)C12CC3CC(CC(C3)C1)C2 (stereo not given)
89 | 132 to 133 °C | O=C(O)CN1CCN(Cc2ccccc2)C1=O
90 | 130 to 135 °C | CC(=O)CC(O)c1ccc(-c2ccc(N3C[C@H](Cn4ccnn4)OC3=O)cc2F)cn1 (stereo not given in full)
91 | 263 to 265 °C | COC(=O)c1cccc2[nH]c(=O)c(C(=O)c3ccccc3)c(O)c12
92 | 89.4 °C | CCC[C@H]1CC[C@H](CCc2ccc(-c3ccc(C#N)cc3F)cc2)CC1
93 | 154 to 155 °C | COc1ccc(C(=O)Nc2cc(N)ccc2Br)cc1OC
94 | 210 to 212 °C | CCCCc1oc2ccccc2c1C(=O)Nc1ccc(-c2ccc(OCc3nnn[nH]3)cc2)cc1
95 | 106 to 108 °C | COc1ccc(-c2nc(-c3cccn3CC(=O)OCC(C)C)sc2-c2ccc(OC)cc2)cc1
